Data taken from the kinase profiling compilation of Christmann-Franck et al. (2016).

Columns and labels:
Assay in all cases: KINOMEscan competition binding
Settings in all cases: compound 10.0 µM
ULK3 (human) = ULK3 (human) (UniProt Q6PHR2)
HIPK2 (human) = HIPK2 (human) (UniProt Q9H2X6)
DSTYK (human) = DSTYK (human) (UniProt Q6XUX3)
ABL2 (human) = ABL2 (human) (UniProt P42684)
GRK1 (human) = GRK1 (human) (UniProt Q15835)
EPHA3 (human) = EPHA3 (human) (UniProt P29320)
PAK6 (human) = PAK6 (human) (UniProt Q9NQU5)
PKN3 (M.tuberculosis) = PKN3 (M.tuberculosis) (UniProt Q6P5Z2)
[1] = tested on: LRRK2 (human), Q5S007 [G2019S]
CRK2 (P.falciparum) = CRK2 (P.falciparum) (UniProt P61075)
Sequence of CRK2 (P.falciparum) (P61075 whole entry, looked up): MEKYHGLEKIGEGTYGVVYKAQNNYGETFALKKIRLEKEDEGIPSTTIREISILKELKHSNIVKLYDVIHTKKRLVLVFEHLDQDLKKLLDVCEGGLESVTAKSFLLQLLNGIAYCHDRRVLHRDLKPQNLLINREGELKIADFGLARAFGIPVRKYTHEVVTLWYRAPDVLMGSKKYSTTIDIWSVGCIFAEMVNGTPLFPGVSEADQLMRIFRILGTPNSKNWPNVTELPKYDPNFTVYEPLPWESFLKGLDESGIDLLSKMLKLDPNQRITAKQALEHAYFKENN

LRRK2 (human) = LRRK2 (human) (UniProt Q5S007)
PIK3C2G (human) = PIK3C2G (human) (UniProt O75747)
RPS6KA1 KD2 (human) = RPS6KA1 KD2 (human) (UniProt Q15418)
SIK2 (human) = SIK2 (human) (UniProt Q9H0K1)
PIK3CB (human) = PIK3CB (human) (UniProt P42338)
TRPM6 (human) = TRPM6 (human) (UniProt Q9BX84)
MAP3K12 (human) = MAP3K12 (human) (UniProt Q12852)
STK4 (human) = STK4 (human) (UniProt Q13043)
TLK1 (human) = TLK1 (human) (UniProt Q9UKI8)
PIK3CA (human) = PIK3CA (human) (UniProt P42336)
EPHB4 (human) = EPHB4 (human) (UniProt P54760)
[2] = tested on: PIK3CA (human), P42336 [E542K]
MAP3K2 (human) = MAP3K2 (human) (UniProt Q9Y2U5)
EPHA6 (human) = EPHA6 (human) (UniProt Q9UF33)
DCLK3 (human) = DCLK3 (human) (UniProt Q9C098)
Sequence of DCLK3 (human) (Q9C098 whole entry, looked up): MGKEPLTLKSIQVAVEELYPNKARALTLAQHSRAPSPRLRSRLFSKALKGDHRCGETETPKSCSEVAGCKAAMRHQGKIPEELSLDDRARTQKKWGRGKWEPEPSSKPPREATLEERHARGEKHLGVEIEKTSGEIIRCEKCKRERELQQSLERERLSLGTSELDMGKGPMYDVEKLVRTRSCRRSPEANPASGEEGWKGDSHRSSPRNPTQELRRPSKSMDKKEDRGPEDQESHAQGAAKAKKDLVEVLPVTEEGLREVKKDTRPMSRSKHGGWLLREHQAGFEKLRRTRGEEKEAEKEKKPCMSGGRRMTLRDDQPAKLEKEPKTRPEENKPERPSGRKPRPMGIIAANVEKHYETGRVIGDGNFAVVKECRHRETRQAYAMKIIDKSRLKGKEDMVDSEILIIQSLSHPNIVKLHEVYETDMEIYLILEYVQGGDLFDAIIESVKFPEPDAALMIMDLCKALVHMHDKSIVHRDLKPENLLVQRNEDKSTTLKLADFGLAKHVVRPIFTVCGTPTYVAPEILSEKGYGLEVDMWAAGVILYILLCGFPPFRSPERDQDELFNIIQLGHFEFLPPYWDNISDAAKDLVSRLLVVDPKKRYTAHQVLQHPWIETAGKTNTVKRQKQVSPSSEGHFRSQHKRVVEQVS

MAP3K1 (human) = MAP3K1 (human) (UniProt Q13233)
PIM1 (human) = PIM1 (human) (UniProt P11309)
Sequence of PIM1 (human) (P11309 whole entry, looked up): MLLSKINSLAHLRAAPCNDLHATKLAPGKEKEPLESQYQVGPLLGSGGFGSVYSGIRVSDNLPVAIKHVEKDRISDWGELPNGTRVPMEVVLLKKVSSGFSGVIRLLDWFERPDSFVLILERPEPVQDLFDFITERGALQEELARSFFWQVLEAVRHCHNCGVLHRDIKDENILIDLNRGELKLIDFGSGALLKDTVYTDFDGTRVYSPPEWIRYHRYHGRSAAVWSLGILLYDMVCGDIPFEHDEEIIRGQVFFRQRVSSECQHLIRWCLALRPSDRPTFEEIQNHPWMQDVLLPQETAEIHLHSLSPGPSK

STK11 (human) = STK11 (human) (UniProt Q15831)
ACVRL1 (human) = ACVRL1 (human) (UniProt P37023)
Sequence of ACVRL1 (human) (P37023 whole entry, looked up): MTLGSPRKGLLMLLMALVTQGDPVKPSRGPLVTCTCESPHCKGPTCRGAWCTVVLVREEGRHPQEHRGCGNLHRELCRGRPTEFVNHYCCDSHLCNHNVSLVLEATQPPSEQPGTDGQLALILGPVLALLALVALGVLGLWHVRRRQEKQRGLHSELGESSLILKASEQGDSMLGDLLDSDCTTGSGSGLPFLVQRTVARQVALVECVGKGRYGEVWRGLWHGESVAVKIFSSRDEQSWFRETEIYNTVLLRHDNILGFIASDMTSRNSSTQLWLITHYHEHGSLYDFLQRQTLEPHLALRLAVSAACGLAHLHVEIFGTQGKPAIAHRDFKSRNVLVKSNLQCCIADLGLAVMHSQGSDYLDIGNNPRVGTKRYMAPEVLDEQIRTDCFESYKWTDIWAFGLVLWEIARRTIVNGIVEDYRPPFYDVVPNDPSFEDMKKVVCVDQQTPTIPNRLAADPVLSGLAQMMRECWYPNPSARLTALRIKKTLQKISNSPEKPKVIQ

CDC42BPB (human) = CDC42BPB (human) (UniProt Q9Y5S2)
AKT3 (human) = AKT3 (human) (UniProt Q9Y243)
TLK2 (human) = TLK2 (human) (UniProt Q86UE8)
DYRK2 (human) = DYRK2 (human) (UniProt Q92630)
Sequence of DYRK2 (human) (Q92630 whole entry, looked up): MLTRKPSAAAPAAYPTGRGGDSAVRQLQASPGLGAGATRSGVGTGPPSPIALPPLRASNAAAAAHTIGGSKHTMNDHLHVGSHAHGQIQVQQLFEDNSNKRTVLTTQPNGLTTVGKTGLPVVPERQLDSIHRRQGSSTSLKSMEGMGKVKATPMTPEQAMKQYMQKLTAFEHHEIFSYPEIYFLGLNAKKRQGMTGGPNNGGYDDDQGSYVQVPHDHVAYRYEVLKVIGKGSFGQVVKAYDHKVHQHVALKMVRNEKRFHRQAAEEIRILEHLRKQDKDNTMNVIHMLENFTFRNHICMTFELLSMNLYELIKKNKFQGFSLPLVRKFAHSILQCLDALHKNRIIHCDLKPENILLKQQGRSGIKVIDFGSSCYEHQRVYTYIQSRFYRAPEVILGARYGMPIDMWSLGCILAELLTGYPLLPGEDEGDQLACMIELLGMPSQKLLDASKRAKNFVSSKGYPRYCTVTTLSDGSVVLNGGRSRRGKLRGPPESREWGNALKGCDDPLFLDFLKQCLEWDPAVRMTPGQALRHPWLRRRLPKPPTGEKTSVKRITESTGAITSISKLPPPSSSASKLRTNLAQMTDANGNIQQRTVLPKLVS

EPHB2 (human) = EPHB2 (human) (UniProt P29323)
EPHA7 (human) = EPHA7 (human) (UniProt Q15375)
Sequence of EPHA7 (human) (Q15375 whole entry, looked up): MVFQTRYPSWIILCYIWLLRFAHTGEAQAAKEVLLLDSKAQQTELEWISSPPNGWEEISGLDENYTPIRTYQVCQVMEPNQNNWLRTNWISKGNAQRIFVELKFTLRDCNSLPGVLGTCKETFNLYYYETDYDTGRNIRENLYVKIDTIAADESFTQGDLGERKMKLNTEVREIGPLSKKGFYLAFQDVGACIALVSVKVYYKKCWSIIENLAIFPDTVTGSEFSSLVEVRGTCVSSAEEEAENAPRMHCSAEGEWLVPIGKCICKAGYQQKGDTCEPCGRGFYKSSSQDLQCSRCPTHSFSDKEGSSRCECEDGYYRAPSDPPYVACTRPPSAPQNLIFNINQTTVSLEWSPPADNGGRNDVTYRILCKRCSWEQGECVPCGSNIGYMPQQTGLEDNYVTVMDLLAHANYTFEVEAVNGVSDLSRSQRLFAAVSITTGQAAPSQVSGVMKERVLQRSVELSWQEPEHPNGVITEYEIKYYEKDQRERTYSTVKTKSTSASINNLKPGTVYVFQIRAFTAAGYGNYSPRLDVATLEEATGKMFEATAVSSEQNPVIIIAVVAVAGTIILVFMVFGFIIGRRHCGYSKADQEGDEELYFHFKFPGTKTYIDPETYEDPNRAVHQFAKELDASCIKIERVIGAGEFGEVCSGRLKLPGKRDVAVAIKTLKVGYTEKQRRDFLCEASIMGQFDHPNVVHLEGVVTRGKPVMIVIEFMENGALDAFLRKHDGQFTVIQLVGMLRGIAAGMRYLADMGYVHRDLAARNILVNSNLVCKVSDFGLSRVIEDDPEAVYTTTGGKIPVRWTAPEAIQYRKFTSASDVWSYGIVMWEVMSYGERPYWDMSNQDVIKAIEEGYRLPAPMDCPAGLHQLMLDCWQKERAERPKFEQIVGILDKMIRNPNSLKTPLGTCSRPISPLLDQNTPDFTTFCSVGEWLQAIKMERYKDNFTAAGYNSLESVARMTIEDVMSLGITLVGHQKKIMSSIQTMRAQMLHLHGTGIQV

PKN1 (human) = PKN1 (human) (UniProt Q16512)
STK32B (human) = STK32B (human) (UniProt Q9NY57)
MAP3K10 (human) = MAP3K10 (human) (UniProt Q02779)
TYRO3 (human) = TYRO3 (human) (UniProt Q06418)
RPS6KB1 (human) = RPS6KB1 (human) (UniProt P23443)

Sequence of HIPK2 (human) (Q9H2X6 whole entry, looked up): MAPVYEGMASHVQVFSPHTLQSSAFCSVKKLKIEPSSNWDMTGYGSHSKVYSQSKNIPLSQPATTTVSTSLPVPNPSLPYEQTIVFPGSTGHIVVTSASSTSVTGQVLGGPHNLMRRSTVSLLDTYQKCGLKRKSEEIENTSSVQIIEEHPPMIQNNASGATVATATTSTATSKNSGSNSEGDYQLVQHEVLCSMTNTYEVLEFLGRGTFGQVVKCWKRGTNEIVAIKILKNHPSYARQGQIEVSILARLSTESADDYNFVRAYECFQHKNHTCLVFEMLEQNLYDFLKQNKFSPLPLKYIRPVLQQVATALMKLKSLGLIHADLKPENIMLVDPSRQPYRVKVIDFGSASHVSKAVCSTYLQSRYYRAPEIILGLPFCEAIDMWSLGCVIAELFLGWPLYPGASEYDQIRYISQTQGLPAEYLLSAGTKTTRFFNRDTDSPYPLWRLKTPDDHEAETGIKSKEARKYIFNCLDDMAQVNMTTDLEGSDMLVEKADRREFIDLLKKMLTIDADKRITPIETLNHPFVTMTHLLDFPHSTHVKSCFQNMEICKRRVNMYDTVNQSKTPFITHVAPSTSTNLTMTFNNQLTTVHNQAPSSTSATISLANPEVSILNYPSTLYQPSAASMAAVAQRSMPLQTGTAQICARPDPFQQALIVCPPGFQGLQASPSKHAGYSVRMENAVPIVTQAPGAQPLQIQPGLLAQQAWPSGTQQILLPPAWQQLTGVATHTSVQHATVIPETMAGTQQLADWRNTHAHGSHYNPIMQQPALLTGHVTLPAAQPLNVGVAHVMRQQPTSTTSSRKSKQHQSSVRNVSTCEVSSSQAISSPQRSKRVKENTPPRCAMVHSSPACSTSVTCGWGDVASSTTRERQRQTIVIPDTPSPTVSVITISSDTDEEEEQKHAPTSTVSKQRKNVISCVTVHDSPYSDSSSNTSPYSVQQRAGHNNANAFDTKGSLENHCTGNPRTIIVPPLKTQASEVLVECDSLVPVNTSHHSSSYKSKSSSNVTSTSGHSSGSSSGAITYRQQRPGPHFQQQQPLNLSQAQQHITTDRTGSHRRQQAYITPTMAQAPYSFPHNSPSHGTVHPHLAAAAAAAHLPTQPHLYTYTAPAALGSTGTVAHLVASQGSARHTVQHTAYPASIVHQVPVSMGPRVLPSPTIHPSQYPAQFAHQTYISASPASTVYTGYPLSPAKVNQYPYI
Sequence of ULK3 (human) (Q6PHR2 whole entry, looked up): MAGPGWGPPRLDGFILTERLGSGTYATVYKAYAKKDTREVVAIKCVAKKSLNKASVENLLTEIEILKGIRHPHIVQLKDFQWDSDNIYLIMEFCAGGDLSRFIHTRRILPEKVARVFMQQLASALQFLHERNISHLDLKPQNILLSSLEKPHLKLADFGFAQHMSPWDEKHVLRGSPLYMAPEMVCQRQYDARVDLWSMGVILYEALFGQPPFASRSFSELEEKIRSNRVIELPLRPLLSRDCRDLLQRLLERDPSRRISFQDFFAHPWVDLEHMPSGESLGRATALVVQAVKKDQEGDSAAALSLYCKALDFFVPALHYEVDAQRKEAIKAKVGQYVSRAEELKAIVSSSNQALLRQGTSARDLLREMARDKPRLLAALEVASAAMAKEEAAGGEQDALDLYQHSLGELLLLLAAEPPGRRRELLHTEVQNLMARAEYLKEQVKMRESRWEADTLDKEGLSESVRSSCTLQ

SMILES	kinase still bound, per cent of control (ULK3 (human)) [%]	kinase still bound, per cent of control (HIPK2 (human)) [%]	kinase still bound, per cent of control (DSTYK (human)) [%]	kinase still bound, per cent of control (ABL2 (human)) [%]	kinase still bound, per cent of control (GRK1 (human)) [%]	kinase still bound, per cent of control (EPHA3 (human)) [%]	kinase still bound, per cent of control (PAK6 (human)) [%]	kinase still bound, per cent of control (PKN3 (M.tuberculosis)) [%]	kinase still bound, per cent of control [1] [%]	kinase still bound, per cent of control (CRK2 (P.falciparum)) [%]	kinase still bound, per cent of control (LRRK2 (human)) [%]	kinase still bound, per cent of control (PIK3C2G (human)) [%]	kinase still bound, per cent of control (RPS6KA1 KD2 (human)) [%]	kinase still bound, per cent of control (SIK2 (human)) [%]	kinase still bound, per cent of control (PIK3CB (human)) [%]	kinase still bound, per cent of control (TRPM6 (human)) [%]	kinase still bound, per cent of control (MAP3K12 (human)) [%]	kinase still bound, per cent of control (STK4 (human)) [%]	kinase still bound, per cent of control (TLK1 (human)) [%]	kinase still bound, per cent of control (PIK3CA (human)) [%]	other results
CCc1nc(-c2cccc(C)c2)c(-c2ccnc(NC(=O)c3ccccc3)c2)s1	88	100	100	47	100	69	98	100	100	100	100	40	28	62	95	100	100	74	82	100	kinase still bound, per cent of control (EPHB4 (human)): 53%; kinase still bound, per cent of control [2]: 100%; kinase still bound, per cent of control (MAP3K2 (human)): 100%; kinase still bound, per cent of control (EPHA6 (human)): 47%; kinase still bound, per cent of control (DCLK3 (human)): 90%; kinase still bound, per cent of control (MAP3K1 (human)): 90%; kinase still bound, per cent of control (PIM1 (human)): 87%; kinase still bound, per cent of control (STK11 (human)): 96%; kinase still bound, per cent of control (ACVRL1 (human)): 85%; kinase still bound, per cent of control (CDC42BPB (human)): 63%; kinase still bound, per cent of control (AKT3 (human)): 95%; kinase still bound, per cent of control (TLK2 (human)): 87%; kinase still bound, per cent of control (DYRK2 (human)): 99%; kinase still bound, per cent of control (EPHB2 (human)): 80%; kinase still bound, per cent of control (EPHA7 (human)): 92%; kinase still bound, per cent of control (PKN1 (human)): 98%; kinase still bound, per cent of control (STK32B (human)): 7%; kinase still bound, per cent of control (MAP3K10 (human)): 100%; kinase still bound, per cent of control (TYRO3 (human)): 83%; kinase still bound, per cent of control (RPS6KB1 (human)): 90%
N#C/C(=C1/Nc2ccccc2S1)c1ccnc(NCCc2cccnc2)n1	12	1.4	51	100	100	73	78	4.6	74	100	100	8.8	27	82	55	100	81	100	57	100	kinase still bound, per cent of control (EPHB4 (human)): 100%; kinase still bound, per cent of control [2]: 100%; kinase still bound, per cent of control (MAP3K2 (human)): 100%; kinase still bound, per cent of control (EPHA6 (human)): 99%; kinase still bound, per cent of control (DCLK3 (human)): 100%; kinase still bound, per cent of control (MAP3K1 (human)): 65%; kinase still bound, per cent of control (PIM1 (human)): 4.4%; kinase still bound, per cent of control (STK11 (human)): 77%; kinase still bound, per cent of control (ACVRL1 (human)): 100%; kinase still bound, per cent of control (CDC42BPB (human)): 81%; kinase still bound, per cent of control (AKT3 (human)): 100%; kinase still bound, per cent of control (TLK2 (human)): 75%; kinase still bound, per cent of control (DYRK2 (human)): 0.7%; kinase still bound, per cent of control (EPHB2 (human)): 100%; kinase still bound, per cent of control (EPHA7 (human)): 99%; kinase still bound, per cent of control (PKN1 (human)): 95%; kinase still bound, per cent of control (STK32B (human)): 100%; kinase still bound, per cent of control (MAP3K10 (human)): 85%; kinase still bound, per cent of control (TYRO3 (human)): 100%; kinase still bound, per cent of control (RPS6KB1 (human)): 41%
O=c1[nH]c2ccccc2n1C1CCN(Cc2ccc(-c3nc4cc5[nH]cnc5cc4nc3-c3ccccc3)cc2)CC1	80	88	76	100	100	82	85	78	100	100	100	75	100	85	6.7	87	100	77	100	77	kinase still bound, per cent of control (EPHB4 (human)): 100%; kinase still bound, per cent of control [2]: 58%; kinase still bound, per cent of control (MAP3K2 (human)): 100%; kinase still bound, per cent of control (EPHA6 (human)): 98%; kinase still bound, per cent of control (DCLK3 (human)): 91%; kinase still bound, per cent of control (MAP3K1 (human)): 80%; kinase still bound, per cent of control (PIM1 (human)): 93%; kinase still bound, per cent of control (STK11 (human)): 94%; kinase still bound, per cent of control (ACVRL1 (human)): 100%; kinase still bound, per cent of control (CDC42BPB (human)): 83%; kinase still bound, per cent of control (AKT3 (human)): 100%; kinase still bound, per cent of control (TLK2 (human)): 100%; kinase still bound, per cent of control (DYRK2 (human)): 88%; kinase still bound, per cent of control (EPHB2 (human)): 72%; kinase still bound, per cent of control (EPHA7 (human)): 100%; kinase still bound, per cent of control (PKN1 (human)): 100%; kinase still bound, per cent of control (STK32B (human)): 88%; kinase still bound, per cent of control (MAP3K10 (human)): 84%; kinase still bound, per cent of control (TYRO3 (human)): 73%; kinase still bound, per cent of control (RPS6KB1 (human)): 84%
